Measurements from the kinase profiling compilation of Christmann-Franck et al. (2016).

Legend:
Test in all cases: KINOMEscan competition binding
Conditions in all cases: compound 10.0 µM
ULK1 (human) = ULK1 (human) (UniProt O75385)
VRK2 (human) = VRK2 (human) (UniProt Q86Y07)
WEE1 (human) = WEE1 (human) (UniProt P30291)
[1] = test system: RET (human), P07949 [V804L]
PDGFRA (human) = PDGFRA (human) (UniProt P16234)
AURKB (human) = AURKB (human) (UniProt Q96GD4)
PRKCE (human) = PRKCE (human) (UniProt Q02156)
NEK4 (human) = NEK4 (human) (UniProt P51957)
NEK5 (human) = NEK5 (human) (UniProt Q6P3R8)
[2] = test system: PIK3CA (human), P42336 [M1043I]
MAP4K5 (human) = MAP4K5 (human) (UniProt Q9Y4K4)
CPK1 (P.falciparum) = test system: CPK1 (P.falciparum)
MAP2K7 (human) = MAP2K7 (human) (UniProt O14733)
PIK3CB (human) = PIK3CB (human) (UniProt P42338)
ULK3 (human) = ULK3 (human) (UniProt Q6PHR2)
CDK3 (human) = CDK3 (human) (UniProt Q00526)
[3] = molecular target: JAK1 JH1 catalytic (human) (UniProt P23458)
[4] = molecular target: TYK2 JH2 pseudokinase (human) (UniProt P29597)
MAPK12 (human) = MAPK12 (human) (UniProt P53778)
PDPK1 (human) = PDPK1 (human) (UniProt O15530)
CAMK2D (human) = CAMK2D (human) (UniProt Q13557)
PTK2B (human) = PTK2B (human) (UniProt Q14289)
LRRK2 (human) = LRRK2 (human) (UniProt Q5S007)
MKNK2 (human) = MKNK2 (human) (UniProt Q9HBH9)
CSNK1G1 (human) = CSNK1G1 (human) (UniProt Q9HCP0)
NEK11 (human) = NEK11 (human) (UniProt Q8NG66)
NEK3 (human) = NEK3 (human) (UniProt P51956)
CDK4 CCND1 (human) = CDK4 CCND1 (human) (UniProt P11802+P24385)
GAK (human) = GAK (human) (UniProt O14976)
PRKD2 (human) = PRKD2 (human) (UniProt Q9BZL6)
[5] = test system: PIK3CA (human), P42336 [H1047L]
EPHB6 (human) = EPHB6 (human) (UniProt O15197)
SIK1 (human) = SIK1 (human) (UniProt P57059)
DAPK1 (human) = DAPK1 (human) (UniProt P53355)
CIT (human) = CIT (human) (UniProt O14578)
RIOK3 (human) = RIOK3 (human) (UniProt O14730)
STK10 (human) = STK10 (human) (UniProt O94804)
MAP3K6 (human) = MAP3K6 (human) (UniProt O95382)
STK36 (human) = STK36 (human) (UniProt Q9NRP7)
EGFR (human) = EGFR (human) (UniProt P00533)

Sequence of RET (human), P07949 [V804L] (P07949 whole entry V804L, looked up): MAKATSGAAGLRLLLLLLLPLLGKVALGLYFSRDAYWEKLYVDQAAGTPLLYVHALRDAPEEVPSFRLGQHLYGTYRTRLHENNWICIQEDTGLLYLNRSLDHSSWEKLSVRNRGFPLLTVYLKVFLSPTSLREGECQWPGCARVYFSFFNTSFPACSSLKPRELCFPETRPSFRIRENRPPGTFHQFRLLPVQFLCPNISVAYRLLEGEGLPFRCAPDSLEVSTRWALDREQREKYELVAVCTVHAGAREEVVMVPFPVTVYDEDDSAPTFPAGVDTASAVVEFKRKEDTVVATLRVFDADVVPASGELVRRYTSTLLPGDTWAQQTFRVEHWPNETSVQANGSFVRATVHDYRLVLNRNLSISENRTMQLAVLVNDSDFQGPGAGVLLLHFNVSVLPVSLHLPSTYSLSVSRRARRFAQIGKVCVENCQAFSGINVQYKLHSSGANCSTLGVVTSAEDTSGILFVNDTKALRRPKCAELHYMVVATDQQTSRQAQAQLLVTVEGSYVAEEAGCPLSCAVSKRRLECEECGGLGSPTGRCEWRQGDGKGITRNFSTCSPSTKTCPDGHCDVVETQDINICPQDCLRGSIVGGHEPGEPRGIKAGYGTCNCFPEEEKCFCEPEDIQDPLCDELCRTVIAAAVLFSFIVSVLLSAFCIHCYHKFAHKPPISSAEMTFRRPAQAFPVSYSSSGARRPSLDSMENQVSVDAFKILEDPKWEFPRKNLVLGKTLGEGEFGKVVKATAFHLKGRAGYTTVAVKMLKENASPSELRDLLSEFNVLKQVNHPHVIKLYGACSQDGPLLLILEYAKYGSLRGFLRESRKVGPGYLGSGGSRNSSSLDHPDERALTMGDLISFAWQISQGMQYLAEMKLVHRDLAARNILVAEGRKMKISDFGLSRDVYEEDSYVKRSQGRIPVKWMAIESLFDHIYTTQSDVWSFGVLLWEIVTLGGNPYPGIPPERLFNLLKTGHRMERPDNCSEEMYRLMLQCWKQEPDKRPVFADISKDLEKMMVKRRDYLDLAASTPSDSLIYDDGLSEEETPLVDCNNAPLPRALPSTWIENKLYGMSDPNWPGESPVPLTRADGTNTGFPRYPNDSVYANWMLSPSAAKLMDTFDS
Sequence of DAPK1 (human) (P53355 whole entry, looked up): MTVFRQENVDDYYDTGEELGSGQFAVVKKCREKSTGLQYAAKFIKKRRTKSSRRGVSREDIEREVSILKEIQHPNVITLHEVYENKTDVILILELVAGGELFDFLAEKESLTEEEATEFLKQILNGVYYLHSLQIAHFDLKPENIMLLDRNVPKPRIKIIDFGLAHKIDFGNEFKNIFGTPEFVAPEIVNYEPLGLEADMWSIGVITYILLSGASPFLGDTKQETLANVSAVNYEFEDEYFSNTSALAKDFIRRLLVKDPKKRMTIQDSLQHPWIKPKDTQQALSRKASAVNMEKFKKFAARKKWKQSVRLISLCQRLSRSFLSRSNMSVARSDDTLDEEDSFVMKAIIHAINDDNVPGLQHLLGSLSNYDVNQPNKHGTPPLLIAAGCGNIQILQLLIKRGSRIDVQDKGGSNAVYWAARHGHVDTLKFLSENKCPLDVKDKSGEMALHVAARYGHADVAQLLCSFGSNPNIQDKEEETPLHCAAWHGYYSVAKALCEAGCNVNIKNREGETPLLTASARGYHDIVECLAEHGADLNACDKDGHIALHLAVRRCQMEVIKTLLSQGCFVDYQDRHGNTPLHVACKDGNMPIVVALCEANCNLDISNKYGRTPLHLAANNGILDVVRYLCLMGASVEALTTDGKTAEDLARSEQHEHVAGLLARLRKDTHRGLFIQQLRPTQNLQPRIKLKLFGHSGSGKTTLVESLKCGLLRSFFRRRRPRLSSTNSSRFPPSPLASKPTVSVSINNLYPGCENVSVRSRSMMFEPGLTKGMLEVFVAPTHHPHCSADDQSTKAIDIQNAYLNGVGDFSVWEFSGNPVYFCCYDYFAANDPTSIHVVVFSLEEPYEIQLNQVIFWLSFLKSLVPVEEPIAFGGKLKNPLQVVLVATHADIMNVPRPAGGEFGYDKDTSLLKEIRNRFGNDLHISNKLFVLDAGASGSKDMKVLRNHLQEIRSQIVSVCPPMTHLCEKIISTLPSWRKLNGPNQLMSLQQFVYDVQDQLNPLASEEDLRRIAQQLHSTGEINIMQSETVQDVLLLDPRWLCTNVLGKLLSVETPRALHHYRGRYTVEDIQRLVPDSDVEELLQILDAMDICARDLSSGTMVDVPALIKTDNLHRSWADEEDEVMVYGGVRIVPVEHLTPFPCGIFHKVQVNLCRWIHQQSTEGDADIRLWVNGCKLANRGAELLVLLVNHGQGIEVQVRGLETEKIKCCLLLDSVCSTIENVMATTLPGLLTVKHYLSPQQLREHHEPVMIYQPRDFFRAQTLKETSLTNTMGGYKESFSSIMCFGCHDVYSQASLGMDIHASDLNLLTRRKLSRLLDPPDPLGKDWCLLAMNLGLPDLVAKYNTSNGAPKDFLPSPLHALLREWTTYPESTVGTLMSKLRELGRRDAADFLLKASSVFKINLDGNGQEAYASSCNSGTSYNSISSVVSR
Sequence of NEK4 (human) (P51957 whole entry, looked up): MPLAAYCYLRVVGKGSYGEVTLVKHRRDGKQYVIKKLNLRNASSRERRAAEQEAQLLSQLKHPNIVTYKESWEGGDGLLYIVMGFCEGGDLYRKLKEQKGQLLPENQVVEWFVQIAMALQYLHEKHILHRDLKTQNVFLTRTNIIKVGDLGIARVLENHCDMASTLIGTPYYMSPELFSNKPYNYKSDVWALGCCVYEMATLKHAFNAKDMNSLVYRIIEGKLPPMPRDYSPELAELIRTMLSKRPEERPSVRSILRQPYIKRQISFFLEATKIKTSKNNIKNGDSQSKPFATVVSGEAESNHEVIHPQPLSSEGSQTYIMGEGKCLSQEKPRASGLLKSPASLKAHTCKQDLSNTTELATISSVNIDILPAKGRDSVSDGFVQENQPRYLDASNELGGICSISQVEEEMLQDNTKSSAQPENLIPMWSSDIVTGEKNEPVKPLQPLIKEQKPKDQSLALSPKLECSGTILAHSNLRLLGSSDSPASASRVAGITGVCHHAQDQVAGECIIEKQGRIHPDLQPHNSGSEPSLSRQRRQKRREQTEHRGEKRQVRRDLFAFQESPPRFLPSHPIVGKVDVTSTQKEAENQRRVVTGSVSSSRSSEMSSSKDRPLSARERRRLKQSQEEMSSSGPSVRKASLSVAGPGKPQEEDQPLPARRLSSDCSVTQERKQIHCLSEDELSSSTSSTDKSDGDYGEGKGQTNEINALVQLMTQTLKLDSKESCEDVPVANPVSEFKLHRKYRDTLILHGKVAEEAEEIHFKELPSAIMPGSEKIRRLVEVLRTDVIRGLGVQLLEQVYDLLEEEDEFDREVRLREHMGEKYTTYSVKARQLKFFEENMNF
Sequence of PRKCE (human) (Q02156 whole entry, looked up): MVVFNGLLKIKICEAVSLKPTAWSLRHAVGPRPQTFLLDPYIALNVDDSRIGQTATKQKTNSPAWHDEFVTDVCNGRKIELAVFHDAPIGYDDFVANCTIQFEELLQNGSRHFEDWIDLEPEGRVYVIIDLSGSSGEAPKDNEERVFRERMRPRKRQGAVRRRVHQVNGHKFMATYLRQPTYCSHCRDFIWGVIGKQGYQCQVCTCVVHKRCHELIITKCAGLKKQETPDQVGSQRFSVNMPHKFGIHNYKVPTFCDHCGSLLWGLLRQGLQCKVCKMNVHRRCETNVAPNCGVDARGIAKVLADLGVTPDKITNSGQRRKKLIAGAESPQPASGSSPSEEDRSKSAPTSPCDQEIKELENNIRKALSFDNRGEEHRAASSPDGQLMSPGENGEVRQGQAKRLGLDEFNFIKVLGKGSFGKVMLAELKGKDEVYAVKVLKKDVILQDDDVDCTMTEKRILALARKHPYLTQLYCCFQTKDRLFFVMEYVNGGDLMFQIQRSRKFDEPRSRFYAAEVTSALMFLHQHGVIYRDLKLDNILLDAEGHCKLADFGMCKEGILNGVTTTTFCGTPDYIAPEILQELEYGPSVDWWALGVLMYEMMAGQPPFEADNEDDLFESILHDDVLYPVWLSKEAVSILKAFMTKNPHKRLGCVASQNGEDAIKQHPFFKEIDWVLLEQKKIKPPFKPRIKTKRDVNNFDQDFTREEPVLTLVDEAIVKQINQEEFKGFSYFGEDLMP
Sequence of NEK3 (human) (P51956 whole entry, looked up): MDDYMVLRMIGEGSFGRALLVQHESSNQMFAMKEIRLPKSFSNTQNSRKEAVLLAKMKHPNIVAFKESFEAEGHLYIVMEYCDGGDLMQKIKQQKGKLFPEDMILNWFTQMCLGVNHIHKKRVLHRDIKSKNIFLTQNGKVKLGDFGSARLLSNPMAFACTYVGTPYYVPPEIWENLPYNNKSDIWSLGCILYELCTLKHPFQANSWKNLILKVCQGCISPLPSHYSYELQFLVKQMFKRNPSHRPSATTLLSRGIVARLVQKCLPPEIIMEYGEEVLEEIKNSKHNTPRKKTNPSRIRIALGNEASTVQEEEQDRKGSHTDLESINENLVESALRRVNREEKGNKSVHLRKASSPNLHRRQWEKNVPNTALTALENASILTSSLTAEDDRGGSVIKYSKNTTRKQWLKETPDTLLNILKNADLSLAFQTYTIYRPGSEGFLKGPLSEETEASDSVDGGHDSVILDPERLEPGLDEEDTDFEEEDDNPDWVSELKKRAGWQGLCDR
Sequence of ULK3 (human) (Q6PHR2 whole entry, looked up): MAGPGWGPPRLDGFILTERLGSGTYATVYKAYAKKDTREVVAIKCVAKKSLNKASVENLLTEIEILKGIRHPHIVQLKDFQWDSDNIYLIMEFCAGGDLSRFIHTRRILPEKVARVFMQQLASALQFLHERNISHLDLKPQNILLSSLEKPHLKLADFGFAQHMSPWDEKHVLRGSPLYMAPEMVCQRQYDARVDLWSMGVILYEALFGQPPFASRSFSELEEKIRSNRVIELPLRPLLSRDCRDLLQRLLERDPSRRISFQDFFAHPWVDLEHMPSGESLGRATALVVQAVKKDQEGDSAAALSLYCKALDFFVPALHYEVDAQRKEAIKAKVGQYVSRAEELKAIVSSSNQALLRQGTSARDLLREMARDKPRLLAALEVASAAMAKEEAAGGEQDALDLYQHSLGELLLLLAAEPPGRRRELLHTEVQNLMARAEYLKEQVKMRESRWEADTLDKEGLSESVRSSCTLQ

Compound	kinase still bound, per cent of control (ULK1 (human))	kinase still bound, per cent of control (VRK2 (human))	kinase still bound, per cent of control (WEE1 (human))	kinase still bound, per cent of control [1]	kinase still bound, per cent of control (PDGFRA (human))	kinase still bound, per cent of control (AURKB (human))	kinase still bound, per cent of control (PRKCE (human))	kinase still bound, per cent of control (NEK4 (human))	kinase still bound, per cent of control (NEK5 (human))	kinase still bound, per cent of control [2]	kinase still bound, per cent of control (CPK1 (P.falciparum))	kinase still bound, per cent of control (MAP2K7 (human))	kinase still bound, per cent of control (PIK3CB (human))	kinase still bound, per cent of control (ULK3 (human))	kinase still bound, per cent of control (CDK3 (human))	kinase still bound, per cent of control [3]	kinase still bound, per cent of control [4]	kinase still bound, per cent of control (MAPK12 (human))	kinase still bound, per cent of control (PDPK1 (human))	kinase still bound, per cent of control (CAMK2D (human))	also measured
N#C/C(=C1/Nc2ccccc2S1)c1ccnc(NCCc2cccnc2)n1	36%	100%	100%	100%	100%	89%	92%	100%	100%	84%	4.2%	100%	55%	12%	100%	100%	1.4%	13%	100%	64%	kinase still bound, per cent of control (MAP4K5 (human)): 94%; kinase still bound, per cent of control (PTK2B (human)): 89%; kinase still bound, per cent of control (LRRK2 (human)): 100%; kinase still bound, per cent of control (MKNK2 (human)): 0.5%; kinase still bound, per cent of control (CSNK1G1 (human)): 42%; kinase still bound, per cent of control (NEK11 (human)): 100%; kinase still bound, per cent of control (NEK3 (human)): 58%; kinase still bound, per cent of control (CDK4 CCND1 (human)): 32%; kinase still bound, per cent of control (GAK (human)): 4.6%; kinase still bound, per cent of control (PRKD2 (human)): 100%; kinase still bound, per cent of control [5]: 85%; kinase still bound, per cent of control (EPHB6 (human)): 3.2%; kinase still bound, per cent of control (SIK1 (human)): 100%; kinase still bound, per cent of control (DAPK1 (human)): 32%; kinase still bound, per cent of control (CIT (human)): 59%; kinase still bound, per cent of control (RIOK3 (human)): 33%; kinase still bound, per cent of control (STK10 (human)): 100%; kinase still bound, per cent of control (MAP3K6 (human)): 100%; kinase still bound, per cent of control (STK36 (human)): 100%
CNC(=O)Nc1ccc(-c2nc(N3CC4CCC(C3)O4)c3cnn(C4CCC5(CC4)OCCO5)c3n2)cc1	100%	100%	79%	85%	80%	92%	100%	82%	81%	4.4%	86%	100%	46%	92%	99%	82%	100%	54%	76%	100%	kinase still bound, per cent of control (MAP4K5 (human)): 83%; kinase still bound, per cent of control (PTK2B (human)): 100%; kinase still bound, per cent of control (LRRK2 (human)): 82%; kinase still bound, per cent of control (MKNK2 (human)): 87%; kinase still bound, per cent of control (CSNK1G1 (human)): 54%; kinase still bound, per cent of control (NEK11 (human)): 99%; kinase still bound, per cent of control (NEK3 (human)): 100%; kinase still bound, per cent of control (CDK4 CCND1 (human)): 90%; kinase still bound, per cent of control (GAK (human)): 75%; kinase still bound, per cent of control (PRKD2 (human)): 100%; kinase still bound, per cent of control [5]: 15%; kinase still bound, per cent of control (EPHB6 (human)): 83%; kinase still bound, per cent of control (SIK1 (human)): 86%; kinase still bound, per cent of control (DAPK1 (human)): 12%; kinase still bound, per cent of control (CIT (human)): 100%; kinase still bound, per cent of control (RIOK3 (human)): 100%; kinase still bound, per cent of control (STK10 (human)): 99%; kinase still bound, per cent of control (MAP3K6 (human)): 80%; kinase still bound, per cent of control (EGFR (human)): 62%; kinase still bound, per cent of control (STK36 (human)): 96%
CCc1nc(-c2cccc(C)c2)c(-c2ccnc(NC(=O)c3ccccc3)c2)s1	69%	63%	100%	99%	84%	100%	87%	100%	100%	95%	22%	100%	95%	88%	100%	100%	57%	100%	89%	100%	kinase still bound, per cent of control (LRRK2 (human)): 100%; kinase still bound, per cent of control (MKNK2 (human)): 94%; kinase still bound, per cent of control (CSNK1G1 (human)): 28%; kinase still bound, per cent of control (NEK11 (human)): 100%; kinase still bound, per cent of control (NEK3 (human)): 100%; kinase still bound, per cent of control (CDK4 CCND1 (human)): 84%; kinase still bound, per cent of control (GAK (human)): 4.4%; kinase still bound, per cent of control (PRKD2 (human)): 46%; kinase still bound, per cent of control [5]: 100%; kinase still bound, per cent of control (EPHB6 (human)): 16%; kinase still bound, per cent of control (SIK1 (human)): 100%; kinase still bound, per cent of control (DAPK1 (human)): 72%; kinase still bound, per cent of control (CIT (human)): 0.45%; kinase still bound, per cent of control (RIOK3 (human)): 100%; kinase still bound, per cent of control (STK10 (human)): 59%; kinase still bound, per cent of control (MAP3K6 (human)): 100%; kinase still bound, per cent of control (STK36 (human)): 4.8%
CCN(CCO)CCCOc1ccc2c(Nc3cc(CC(=O)Nc4cccc(F)c4)[nH]n3)ncnc2c1	76%	100%	100%	2%	0%	0.2%	100%	40%	100%	100%	63%	91%	81%	69%	95%	100%	98%	89%	100%	93%	kinase still bound, per cent of control (MAP4K5 (human)): 0.95%; kinase still bound, per cent of control (PTK2B (human)): 100%; kinase still bound, per cent of control (LRRK2 (human)): 100%; kinase still bound, per cent of control (MKNK2 (human)): 6.4%; kinase still bound, per cent of control (NEK11 (human)): 98%; kinase still bound, per cent of control (NEK3 (human)): 100%; kinase still bound, per cent of control (CDK4 CCND1 (human)): 92%; kinase still bound, per cent of control (GAK (human)): 21%; kinase still bound, per cent of control (PRKD2 (human)): 80%; kinase still bound, per cent of control [5]: 73%; kinase still bound, per cent of control (EPHB6 (human)): 0.8%; kinase still bound, per cent of control (SIK1 (human)): 88%; kinase still bound, per cent of control (DAPK1 (human)): 80%; kinase still bound, per cent of control (CIT (human)): 27%; kinase still bound, per cent of control (RIOK3 (human)): 100%; kinase still bound, per cent of control (STK10 (human)): 11%; kinase still bound, per cent of control (STK36 (human)): 37%
